Values joined by “and” are separate entries in the source; they are usually repeats but may differ in a detail not shown here. Identical values can stand only once.

The nature of this data set: Effect of different alkalinizing agents on the pH of an acidic solution. Format: physicochemical. As for the experimental part:
Various alkalinizing agents were added to a solution of 0.1 N HCl with a starting pH of 2.0 and the pH of the solution was tested at different time points.

Take `Cl.N=C(N)NCCC[C@H](N)C(=O)O` [Arginine HCl, L-arginine-HCl]: the “pH of 0.1N HCl solution (starting pH 2.0)” value (from here on “pH of 0.1N HCl solution”) (100 mg Arginine HCl in 200 ml, time: 10,20,30,40,50,60 min) is recorded as 2.20.
For `CNC[C@H](O)[C@@H](O)[C@H](O)[C@H](O)CO` [Meglumine, meglumine], where the note is “120 mg in 200 ml, time: 10,20,30,40,50,60 min”, the “pH of 0.1N HCl solution” value came out at 2.16.
`CC(=O)[O-].[Na+]` [Sodium Acetate, sodium acetate]: where the note is “200 mg in 200 ml, time: 10,20,30,40,50,60 min”, the “pH of 0.1N HCl solution” value is 4.96 and 5.08 and 5.21 and 5.34 and 4.73.
`O=C([O-])CC(O)(CC(=O)[O-])C(=O)[O-].[Na+].[Na+].[Na+]` [Sodium Citrate, sodium citrate]: where the note is “930 mg in 200 ml, time: 10,20,30,40,50,60 min”, the “pH of 0.1N HCl solution” value is recorded as 5.53.
For `O=C([O-])[O-].[Ca+2]` [calcium carbonate], the “effect on the pH of the solution” value by setting is: (240 mg/320 ml (0.75 mg/ml), 60 minute timecourse) “rapidly raised the pH of the solution to neutral or higher”; (120-140 mg/200 ml, 60 minute timecourse) “raise the pH of the solution to near neutral or neutral”.
Regarding `O=C([O-])[O-].[Mg+2]` [magnesium carbonate], the “pH reached” value (80 mg in 200 ml, 30 minute timecourse) was “above 9”. The “pH of 0.1N HCl solution” value (100 mg Magnesium Carbonate in 200 ml, time: 10,20,30,40,50,60 min) was 3.05.
`[Mg+2].[OH-].[OH-]` [magnesium hydroxide]: the “pH of 0.1N HCl solution” value (60 mg in 200 ml, time by row: r6-r15=1-10 min, r16-r20=20,30,40,50,60 min) was 2.96 and 2.99 and 3.00 and 3.01 and 2.50 and 2.66 and 2.83 and 2.92; the “pH of 0.1N HCl solution” value (60 mg per 500 mL, time by row: r8-r18=0-10 min, r19-r23=20,30,40,50,60 min) was 2.12 and 2.17 and 2.18 and 2.19 and 2.01 and 2.06; the “pH of 0.1N HCl solution” value (100 mg per 500 mL, time by row: r8-r18=0-10 min, r19-r23=20,30,40,50,60 min) is 2.21 and 2.33 and 2.38 and 2.40 and 2.41 and 2.03 and 2.10. The “effect on the pH of the solution” value (71 mg/200 ml, 81 mg/200 ml and 100 mg/200 ml, 60 minute timecourse) is given as “raised the pH of the solution to neutral or higher”; the “effect on the pH of the solution” value (100 mg/320 ml, 180 mg/500 ml, 120 mg/320 ml, 200 mg/500 ml and 240 mg/500 ml, 60 minute timecourse) is “rapidly raised the pH of the solution to neutral or higher”.
On to `[O]=[Mg]` [magnesium oxide], for which the “effect on the pH of the solution” value was “rapidly raised the pH of the solution to neutral or higher” (160 mg/320 ml (0.5 mg/ml), 60 minute timecourse); “rapidly raise the pH of the solution to neutral or higher” (80-120 mg/200 ml powder and 80 mg granular form in 200 ml, 60 minute timecourse).
`O=C([O-])O.[Na+]` [sodium bicarbonate]: the “pH of 0.1N HCl solution” value is 2.05 and 2.02 and 2.04 (20 mg per 320 mL, time by row: r6-r16=0-10 min, r17-r21=20,30,40,50,60 min); 2.08 and 2.09 and 2.05 (40 mg per 320 mL, time by row: r6-r16=0-10 min, r17-r21=20,30,40,50,60 min); 1.72 and 1.71 (50 mg in 200 ml, time by row: r6-r10=0,10,20,30,40 min); 1.75 and 1.71 and 1.76 (100 mg in 200 ml, time by row: r6-r10=0,10,20,30,40 min). Besides, the “effect on the pH of the solution” value (20 mg/320 ml and 40 mg/320 ml, 60 minute timecourse) was “neither amount tested was sufficient to raise the pH to neutral or higher”; the “effect on the pH of the solution” value (50 and 100 mg/200 ml, 40 minute timecourse) was “neither tested amount was sufficient to raise the pH”.
`O=C([O-])[O-].[Na+].[Na+]` [sodium carbonate]: the “pH of 0.1N HCl solution” value reads like this: (11.13 mg in 200 ml, time by row: r7-r12=0-5 min, r13-r16=10,15,20,60 min) 2.80 and 2.66; (30.11 mg in 200 ml, time by row: r7-r12=0-5 min, r13-r16=10,15,20,60 min) 3.25 and 3.26 and 3.27 and 2.57 and 3.21 and 3.24. Moreover, the “effect on the pH of the solution” value (81.68 mg in 200 ml, 60 minute timecourse) was “raise the pH of the 200 ml solution to above neutral”.
`CCCCCCCCCCCCOS(=O)(=O)[O-].[Na+]` [sodium lauryl sulfate]: where the note is “10 mg (10.22 mg actual) in 200 ml, time by row: r6-r16=0-10 min, r17=20, r18=30 min, sulfate”, the “pH of 0.1N HCl solution” value was 2.67 and 2.68. In addition, the “effect on the pH of the solution” value (10 mg in 200 ml, 30 minute timecourse) was “insufficient to substantially raise the pH”.

These data come from US20190388354A1, “IMPROVED COMPOSITIONS AND METHODS FOR REDUCING OVERDOSE” (priority 2017, published 2019).
